Source: patent US5585385A, “Heterocyclic compounds, their production and use as tachykinin reactor antagonists” (Takeda Chemical Industries, Ltd., priority 1993, dated 1996)

Target: T1, substance P receptor (Homo sapiens, UniProt P25103)
T1 construct: The receptor was prepared from human lymphoblast cells (IM-9); endogenous in cells; host or cells: IM-9 human lymphoblast cells (crude membrane preparation)
Test: Radioligand receptor binding inhibitory activity using receptor from human lymphoblast cells (IM-9), 125I-BHSP
Details: human IM-9 cell receptor, 25° C., 30 minutes, pH 7.4, n=1
Description: Radioligand receptor binding inhibitory activity
Binding inhibitory activity using receptor from human lymphoblast cells (IM-9)
The method of A. Margaret "Molecular Pharmacology 42, p.458 (1992)" was modified and used. The receptor was prepared from human lymphoblast cells (IM-9). IM-9 cells (2×10^5 cells/ml) were inoculated and incubated for 3 days (one liter), which was then subjected to centrifuge for 5 minutes at 500×g to obtain cell pellets. The pellets were washed once with phosphate buffer (Flow Laboratories, CAT. No. 28-103-05), which were then crushed using Polytron.homogenizer "Kinematika, Germany" in 30 ml of 50 mM Tris-HCl buffer (pH 7.4) containing 120 mM sodium chloride, 5 mM potassium chloride, 2 μg/ml chymostatin, 40 μg/ml bacitracin, 5 μg/ml phosphoramidon, 0.5 mM phenylmethyl sulfonyl fluoride, 1 mM ethylenediamine tetra-acetic acid, which was subjected to centrifuge at 40,000×g for 20 minutes. The residue was washed twice with 30 ml of the above-mentioned buffer, which was then preserved frozen (-80° C.) as a specimen of the receptor.
The specimen was suspended in a reaction buffer (50 mM Tri-HCl buffer (pH 7.4), 0.02% bovine serum albumin, 1 mM phenylmethylsulfonyl fluoride, 2 μg/chymostatin, 40 μg/ml bacitracin, 3 mM manganese chloride) and 100 ul portion was the suspension was used in the reaction. After addition of the sample and ^125 I-BHSP (0.46 KBq), the reaction was allowed to proceed in 0.2 ml of reaction buffer at 25° C. for 30 minutes. The amount of nonspecific binding was determined by adding substance P at a final concentration of 2×10^-6 M. After the reaction, using a cell harvester (290 PHD, Cambridge Technology, Inc, U.S.A.), rapid filtration was carried out through a glass filter (GF/B, Whatman, U.S.A.) to stop the reaction. After washing three times with 250 ul of 50 mM of Tris-HCl buffer (pH 7.4) containing 0.02% bovine serum albumin, the radioactivity remaining on the filter was determined with a gamma counter. Before use, the filter was immersed in 0.1% polyethyleneimine for 24 hours and air-dried. […] (Radioligand means substance P labelled with ^125 I.) The number of this experiment is one.

T1 sequence (P25103 whole entry): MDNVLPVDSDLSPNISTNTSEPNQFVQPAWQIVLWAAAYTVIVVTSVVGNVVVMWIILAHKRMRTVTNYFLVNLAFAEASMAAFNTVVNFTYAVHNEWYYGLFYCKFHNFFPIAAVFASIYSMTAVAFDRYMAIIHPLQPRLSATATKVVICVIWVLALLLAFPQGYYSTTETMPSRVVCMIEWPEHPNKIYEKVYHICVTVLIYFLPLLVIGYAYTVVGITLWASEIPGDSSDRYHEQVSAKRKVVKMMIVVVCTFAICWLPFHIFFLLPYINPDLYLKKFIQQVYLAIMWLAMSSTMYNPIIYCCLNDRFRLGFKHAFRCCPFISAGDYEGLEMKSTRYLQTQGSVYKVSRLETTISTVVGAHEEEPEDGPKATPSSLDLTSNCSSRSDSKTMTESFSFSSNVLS

Compound | IC50
Cc1ccccc1-c1c(C(=O)N(C)Cc2cc(C(F)(F)F)cc(C(F)(F)F)c2)n(C)c(=O)c2cccnc12 [Example 10, N-[3,5-Bis(trifluoromethyl)benzyl]-5,6-dihydro-N, 6-dimethyl-8-(2-methylphenyl)-5-oxo-7-pyrido[4,3-b]pyridinecarboxamide] | 33 nM
Cc1ccccc1-c1c(C(=O)N(C)Cc2cc(C(F)(F)F)cc(C(F)(F)F)c2)n(C)c(=O)c2sccc12 [Example 47, N-[3,5-Bis(trifluoromethyl)benzyl]-6,7-dihydro-N, 6-dimethyl-4-(2-methylphenyl)-7-oxo-5-thieno[2,3-c]pyridinecarboxamide] | 0.2 nM
CN(Cc1cc(C(F)(F)F)cc(C(F)(F)F)c1)C(=O)c1c(-c2ccccc2)c2ccncc2c(=O)n1C [Example 37, N-[3,5-Bis(trifluoromethyl)benzyl]-1,2-dihydro-N, 2-dimethyl-1-oxo-4-phenyl-3-pyrido[3,4-c]pyridinecarboxamide] | 0.62 nM
COc1ccccc1CNC(=O)c1c(-c2ccc(F)cc2)c2cccnc2c(=O)n1C [Example 3, 5-(4-Fluorophenyl)-7,8-dihydro-N-(2-methoxybenzyl)-7-methyl-8-oxo-6-pyrido[3,4-b]pyridinecarboxamide] | 14 nM
CN(Cc1cc(C(F)(F)F)cc(C(F)(F)F)c1)C(=O)c1cnc2sccc2c1-c1ccc(F)cc1 [Example 24, N[3,5-Bis(trifluoromethyl)benzyl]-4-(4-fluorophenyl)-N-methyl-5-thieno[2,3-b]pyridinecarboxamide] | 0.2 nM
CN(Cc1cc(C(F)(F)F)cc(C(F)(F)F)c1)C(=O)c1c(-c2ccccc2)c2ccsc2c(=O)n1C [Example 44, N-[3,5-bis(trifluoromethyl)benzyl]-6,7-dihydro-N, 6-dimethyl-7-oxo-4-phenyl-5-thieno[2,3-c]pyridinecarboxamide] | 0.24 nM
N-[3,5-Bis(trifluoromethyl)benzyl]-5-(chloro-2-methylphenyl)-7,8-dihydro-N,7-dimethyl-8-oxo-6-pyrido[3,4-b]pyridinecarboxamide and its isomer [Example 11] | 0.2 nM
CN(Cc1cc(C(F)(F)F)cc(C(F)(F)F)c1)C(=O)c1cnc2ccccc2c1-c1ccccn1 [Example 12, N-[3,5-Bis(trifluoromethyl)benzyl]-N-methyl-4-(2-pyridyl)-3-quinolinecarboxamide] | 2.8 nM
CN(Cc1cc(C(F)(F)F)cc(C(F)(F)F)c1)C(=O)c1c(-c2ccc(F)cc2)c2ncsc2c(=O)n1C [Example 40, N-[3,5-Bis(trifluoromethyl)benzyl]-7-(4-fluorophenyl)-4,5-dihydro-N, 5-dimethyl-4-oxo-6-thiazolo[5,4-c]pyridinecarboxamide] | 1.8 nM
CN(Cc1cc(C(F)(F)F)cc(C(F)(F)F)c1)C(=O)c1c(-c2ccccc2)c2scnc2c(=O)n1C [Example 43, N-[3,5-Bis(trifluoromethyl)benzyl]-4,5-dihydro-N, 5-dimethyl-4-oxo-7-phenyl-6-thiazolo[4,5-c]pyridinecarboxamide] | 1 nM
COc1ccccc1CN(C)C(=O)c1c(-c2ccc(F)cc2)c2cccnc2c(=O)n1C [Example 4, 5-(4-Fluorophenyl)-7,8-dihydro-N-(2-methoxybenzyl)-N,7-dimethyl-8-oxo-6-pyrido[3,4-b]pyridinecarboxamide] | 2.5 nM
CN(Cc1cc(C(F)(F)F)cc(C(F)(F)F)c1)C(=O)c1c(-c2ccc(F)cc2)c2c[n+](C)ccc2c(=O)n1C [Example 33, 3-[N-[3,5-Bis(trifluoromethyl)benzyl]-N-methylaminocarbonyl]-4-(4-fluorophenyl)-1,2-dihydro-2,6-dimethyl-1-oxopyrido[4,3-c]pyridinium iodide] | 16 nM
CN(Cc1cc(C(F)(F)F)cc(C(F)(F)F)c1)C(=O)c1c(-c2ccc(F)cc2)c2cscc2c(=O)n1C [Example 18, N-[3,5-Bis(trifluoromethyl)benzyl]-7-(4-fluorophenyl)-4,5-dihydro-N, 5-dimethyl-4-oxo-6-thieno[3,4-c]pyridine carboxamide] | 0.36 nM
CN(Cc1cc(C(F)(F)F)cc(C(F)(F)F)c1)C(=O)c1c(-c2ccc(F)cc2)c2cc(Cl)cnc2c(=O)n1C [Example 6, N-[3,5-Bis(trifluoromethyl)benzyl]-3-chloro-5-(4-fluorophenyl)-7,8-dihydro-N, 7-dimethyl-8-oxo-6-pyrido[3,4-b]pyridinecarboxamide] | 1.1 nM
CN1CCc2c(-c3ccc(F)cc3)c(C(=O)N(C)Cc3cc(C(F)(F)F)cc(C(F)(F)F)c3)n(C)c(=O)c2C1 [Example 32, N-[3,5-Bis(trifluoromethyl)benzyl]-4-(4-fluorophenyl)-1,2,5,6,7,8-hexahydro-N,2,7-trimethyl-1-oxo-3-pyrido[3,4-c]pyridinecarboxamide] | 0.048 nM
CN1CCc2c(c(-c3ccc(F)cc3)c(C(=O)N(C)Cc3cc(C(F)(F)F)cc(C(F)(F)F)c3)n(C)c2=O)C1 [Example 34, N-[3,5-Bis(trifluoromethyl)benzyl]-4-(4-fluorophenyl)-1,2,5,6,7,8-hexahydro-N,2,6-trimethyl-1-oxo-3-pyrido [4,3-c]pyridinecarboxamide] | 2.1 nM
CN(Cc1cc(C(F)(F)F)cc(C(F)(F)F)c1)C(=O)c1c(-c2cccs2)c2ccccc2c(=O)n1C [Example 21, N[3,5-Bis(trifluoromethyl)benzyl]-1,2-dihydro-N, 2-dimethyl-1-oxo-4-(2-thienyl)-3-isoquinolinecarboxamide] | 2.5 nM
CN(Cc1cc(C(F)(F)F)cc(C(F)(F)F)c1)C(=O)c1c(-c2ccc(F)cc2)c2cnccc2c(=O)n1C [Example 9, N-[3,5-Bis(trifluoromethyl)benzyl]-4-(4-fluorophenyl)-1,2-dihydro-N, 2-dimethyl-1-oxo-3-pyrido[4,3-c]pyridine carboxamide] | 1.2 nM
CN(Cc1cc(C(F)(F)F)cc(C(F)(F)F)c1)C(=O)c1c(-c2ccc(F)cc2)c2cc[n+](C)cc2c(=O)n1C [Example 31, 3-[N-[3,5-Bis(trifluoromethyl)benzyl]-N-methylaminocarbonyl]-4-(4-fluorophenyl)-1,2-dihydro-2,7-dimethyl-1-oxopyrido[3,4-c]pyridinium iodide] | 0.33 nM
CN(Cc1cc(C(F)(F)F)cc(C(F)(F)F)c1)C(=O)c1c(-c2ccc(F)cc2)c2c(c(=O)n1C)CCCN2C [Example 28, N-[3,5-Bis(trifluoromethyl)benzyl]-8-(4-fluorophenyl)-1,2,3,4,5,6-hexahydro-N, 1,6-trimethyl-5-oxo-7-pyrido [4,3-b]pyridinecarboxamide] | 5 nM
CN(Cc1cc(C(F)(F)F)cc(C(F)(F)F)c1)C(=O)c1c(-c2ccc(F)cc2)c2ccc(=O)n(C)c2c(=O)n1C [Example 35, N-[3,5-Bis(trifluoromethyl)benzyl]-5-(4-fluorophenyl)-1,2,7,8-tetrahydro-N,1,7-trimethyl-2,8-dioxo-6-pyrido [3,4-b]pyridinecarboxamide] | 0.35 nM
CN(Cc1cc(C(F)(F)F)cc(C(F)(F)F)c1)C(=O)c1c(-c2ccccc2)c2c(c(=O)n1C)NCCC2 [Example 55, N-[3,5-Bis(trifluoromethyl)benzyl]-1,2,3,4,7,8-hexahydro-5-phenyl-N,7-dimethyl-8-oxo-6-pyrido[3,4-b]pyridinecarboxamide] | 0.7 nM
COc1ccccc1CN(C)C(=O)c1c(-c2ccccc2)c2ccsc2c(=O)n1C [Example 46, 6,7-Dihydro-N-(2-methoxybenzyl)-N, 6-dimethyl-7-oxo-4-phenyl-5-thieno[2,3-c]pyridinecarboxamide] | 26 nM
CN(Cc1cc(C(F)(F)F)cc(C(F)(F)F)c1)C(=O)c1c(-c2ccc(F)cc2)c2ccc[n+](C)c2c(=O)n1C [Example 29, 6-[N-[3,5-Bis(trifluoromethyl)benzyl]-N-methylaminocarbonyl]-5-(4-fluorophenyl)-7,8-dihydro-1,7-dimethyl-8-oxopyrido[3,4-b]pyridinium iodide] | 0.6 nM
CN(Cc1cc(C(F)(F)F)cc(C(F)(F)F)c1)C(=O)c1c(-c2ccccc2)c2c(c(=O)n1C)CCCN2 [Example 51] | 2.1 nM
CN(Cc1cc(C(F)(F)F)cc(C(F)(F)F)c1)C(=O)c1c(-c2ccc(F)cc2)c2ncccc2c(=O)n1C [Example 19, N-[3,5-Bis(trifluoromethyl)benzyl]-8-(4-fluorophenyl)-5,6-dihydro-N, 6-dimethyl-5-oxo-7-pyrido[4,3-b]pyridine carboxamide] | 0.94 nM
CN(Cc1cc(C(F)(F)F)cc(C(F)(F)F)c1)C(=O)c1c(-c2ccc(F)cc2)c2c(c(=O)n1C)N(C)CCC2 [Example 30, N-[3,5-Bis(trifluoromethyl)benzyl]-5-(4-fluorophenyl)-1,2,3,4,7,8-hexahydro-N, 1,7-trimethyl-8-oxo-6-pyrido [3,4-b]pyridinecarboxamide] | 0.1 nM
